Source: US8084621B2, “3-Pyrrolo[b]cyclohexylene-2-dihydroindolinone derivatives and uses thereof” (Jiangsu Simcere Pharmaceutical R&D Co. Ltd., priority 2006, dated 2011)

Target: T1, VEGFR-2 (Homo sapiens, UniProt P35968)
T1 construct: purchased Cell Signaling Technology CO
Assay: Protein kinase activity by ELISA in vitro, VEGFR-2
Assay type: biochemical
Settings: for IC50: read-out: IC50 of the VEGF Receptor Kinase; for inhibition at 0.1 µM: concentration of 10^−7 mol/L, read-out: kinase inhibition ratio, VEGFR-2
Procedure: An ELISA (Enzyme-Linked Immunosorbent Sandwich Assay) procedure may be used to detect and measure the level of protein tyrosine kinase activity. […] According to the principle of ELISA, a monoclonal antibody can react with phosphorylated substrate specially, so biotin-labeled substrate is binded to streptavidin-coated ELISA plate, and then binded to a HRP-labeled goat anti-mouse antibody. Finally TMB is added for a color reaction and the value of A450-A630 is read by ELISA plate reader. The OD value can reflect the inhibitory activity of the VEGFR-2, PDGFR-β, c-Kit tyrosine kinases etc. treated with the test compounds at the different concentrations. So, the assay may be used to measure the inhibition ratio of the compounds for the tyrosine kinase activity. Similar assays can be designed along the same lines for any PK using techniques well known in the art.
According to the principle of ELISA, a monoclonal antibody can react with phosphorylated substrate specially, so biotin-labeled substrate is binded to streptavidin-coated ELISA plate, and then binded to a HRP-labeled goat anti-mouse antibody. Finally TMB is added for a color reaction and the value of A450-A630 is read by ELISA plate reader. The OD value can reflect the inhibitory activity of the VEGFR-2, PDGFR-β c-Kit tyrosine kinases treated with the test compounds at the different concentrations. So, the assay may be used to measure the inhibition ratio of the compounds for the tyrosine kinase activity. Similar assays can be designed along the same lines for any PK using techniques well known in the art.
VEGF Receptor 2, PDGF Receptor-beta and c-kit kinase assay kit (include kinase, 1.25M DTT, substrate peptide, 10 mM ATP, P-Tyr-100 Mouse antibody, 4×HTScan tyrosine kinase buffer), Cell Signaling Technology CO.; HRP labeled goat anti mouse IgG, Protein Tech CO.; TMB, Pierce CO.; Streptavidin Microtitration Plate, Greiner Bio-one CO.; Infinite M200 Reader, Tecan CO.
1.2.1 Immediately transfer enzyme from −80° C. to ice. Allow enzyme to thaw on ice then at 4° C. and centrifugate transiently to the bottom of centrifuge tube, then lay back on ice quickly
1.2.2 Add 10 μl of DTT (1.25 M) to 2.5 ml of 4×HTScan tyrosine kinase buffer (240 mM HEPES pH 7.5, 20 mM MgCl2, 20 mM MnCl2, 12 μM Na3VO4). Transfer 0.6 ml of DTT/Kinase buffer to each enzyme tube to make 4× reaction Cocktail. Incubate 12.5 μl of the 4× reaction cocktail with 12.5 μl/well prediluted compound of interest for 5 minutes at room temperature, and set blank control, free-enzyme control, negative control and positive control. 1.2.3 Add 10 μl 10 mM ATP to 1.25 ml 6 μM substrate peptide. Dilute the mixture with dH20 to 2.5 ml to make 2×ATP/substrate cocktail. Add 25 μl of 2×ATP/substrate cocktail to 25 μl/well preincubated reaction cocktail/compound. Incubate reaction plate at room temperature for 30 minutes. 1.2.4 Add 50 μl/well stop Buffer (50 mM EDTA, pH 8) to stop the reaction. Transfer 25 μl of each reaction and 75 μl dH2O/well to a 96-well streptavidin coated plate and incubate at room temperature for 60 minutes. Wash three times with 200 μl/well PBS/T(1×PBS, 0.05% Tween-20). 1.2.5 Dilute primary antibody, Phospho-Tyrosine mAb (P-Tyr-100), 1:500 in PBS/T with 1% BSA. Add 100 μl/well primary antibody. Incubate at room temperature for 60 minutes. Wash three times with 200 μl/well PBS/T(1×PBS, 0.05% Tween-20). 1.2.6 Prepare appropriate dilution of HRP labeled secondary antibody, 1:500 in PBS/T with 1% BSA. Add 100 μl/well secondary antibody solution. Incubate at room temperature for 30 minutes. Wash five times with 200 μl/well PBS/T 1.2.7 Add 100 μl/well TMB substrate and incubate at room temperature for 1-10 minutes. Add 50 μl 2M H2SO4 to stop the color reaction. Read the absorbance of A450-A630 with the Infinite M200 microtiter plate reader. 1.2.8 Calculate the inhibition ratio with the following formula: […]

T1 sequence (P35968 20-1356): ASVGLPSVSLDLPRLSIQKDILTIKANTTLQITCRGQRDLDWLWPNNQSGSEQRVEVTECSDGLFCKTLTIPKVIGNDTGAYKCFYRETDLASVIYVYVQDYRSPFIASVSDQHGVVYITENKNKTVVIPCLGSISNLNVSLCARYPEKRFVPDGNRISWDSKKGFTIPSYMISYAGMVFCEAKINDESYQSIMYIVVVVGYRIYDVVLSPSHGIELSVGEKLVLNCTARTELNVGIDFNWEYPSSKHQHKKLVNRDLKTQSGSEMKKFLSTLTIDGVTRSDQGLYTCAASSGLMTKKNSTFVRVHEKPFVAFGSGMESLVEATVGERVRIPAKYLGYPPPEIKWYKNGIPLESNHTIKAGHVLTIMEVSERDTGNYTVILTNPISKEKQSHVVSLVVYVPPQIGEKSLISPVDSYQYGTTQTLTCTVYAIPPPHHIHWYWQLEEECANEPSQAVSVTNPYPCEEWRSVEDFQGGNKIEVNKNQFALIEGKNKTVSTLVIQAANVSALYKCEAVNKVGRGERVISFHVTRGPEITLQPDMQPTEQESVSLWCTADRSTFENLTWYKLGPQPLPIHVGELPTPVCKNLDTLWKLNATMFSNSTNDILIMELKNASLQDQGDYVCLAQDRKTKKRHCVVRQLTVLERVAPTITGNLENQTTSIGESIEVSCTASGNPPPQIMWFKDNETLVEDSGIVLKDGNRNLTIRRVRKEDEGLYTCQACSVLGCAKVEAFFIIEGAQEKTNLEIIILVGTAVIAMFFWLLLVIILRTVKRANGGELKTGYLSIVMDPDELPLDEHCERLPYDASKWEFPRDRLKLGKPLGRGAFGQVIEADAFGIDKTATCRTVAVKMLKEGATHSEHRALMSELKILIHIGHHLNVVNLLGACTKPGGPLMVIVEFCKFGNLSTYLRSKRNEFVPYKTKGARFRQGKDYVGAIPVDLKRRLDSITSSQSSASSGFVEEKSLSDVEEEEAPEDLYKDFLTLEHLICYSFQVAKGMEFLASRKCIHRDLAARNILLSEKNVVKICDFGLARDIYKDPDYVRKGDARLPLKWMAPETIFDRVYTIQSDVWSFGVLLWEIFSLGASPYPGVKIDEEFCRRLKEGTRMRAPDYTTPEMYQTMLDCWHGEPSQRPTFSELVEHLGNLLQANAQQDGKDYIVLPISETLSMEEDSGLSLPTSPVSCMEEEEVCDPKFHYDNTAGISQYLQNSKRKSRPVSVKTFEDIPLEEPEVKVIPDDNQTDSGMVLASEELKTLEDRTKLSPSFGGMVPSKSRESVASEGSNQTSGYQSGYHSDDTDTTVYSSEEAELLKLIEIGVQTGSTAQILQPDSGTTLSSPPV

IC50 | inhibition at 0.1 µM | Compound
79 nM |  | Cc1[nH]c2c(c1C(=O)N1CCN(C)CC1)CCC/C2=C1/C(=O)Nc2ccc(F)cc21 [I-14, 2-methyl-3-(4-methylpiperazine-1-carbonyl)-7-[1,2-dihydro-5-fluoro-2-oxo-3H-indol-(Z)-3-ylidene]-4,5,6,7-tetrahydro-1H-indole]
5.6 nM | 76% | CCN(CC)CCNC(=O)c1c(C)[nH]c2c1CCC/C2=C1/C(=O)Nc2ccc(C)cc21 [I-4, N-(2-(diethylamino)ethyl)-2-methyl-7-[1,2-dihydro-5-methyl-2-oxo-3H-indol-(Z)-3-ylidene]-4,5,6,7-tetrahydro-1H-indole-3-carboxamide]
 | 79% | Cc1[nH]c2c(c1C(=O)NCCN(C)C)CCC/C2=C1/C(=O)Nc2ccc(F)cc21 [I-6, N-(2-(dimethylamino)ethyl)-2-methyl-7-[1,2-dihydro-5-fluoro-2-oxo-3H-indol-(Z)-3-ylidene]-4,5,6,7-tetrahydro-1H-indole-3-carboxamide]
43 nM |  | Cc1[nH]c2c(c1C(=O)NCC(O)CN1CCOCC1)CCC/C2=C1/C(=O)Nc2ccc(F)cc21 (stereo not drawn) [I-68, N-(2-hydroxy-3-morpholinopropyl)-2-methyl-7-[1,2-dihydro-5-fluoro-2-oxo-3H-indol-(Z)-3-ylidene]-4,5,6,7-tetrahydro-1H-indole-3-carboxamide]
34 nM |  | Cc1[nH]c2c(c1C(=O)NCC(O)CN1CCCC1)CCC/C2=C1/C(=O)Nc2ccc(F)cc21 (stereo not drawn) [I-71, N-(2-hydroxy-3-(pyrrolidin-1-yl)propyl)-2-methyl-7-[1,2-dihydro-5-fluoro-2-oxo-3H-indol-(Z)-3-ylidene]-4,5,6,7-tetrahydro-1H-indole-3-carboxamide]
25 nM |  | Cc1[nH]c2c(c1C(=O)NCC(O)CN1CCN(C)CC1)CCC/C2=C1/C(=O)Nc2ccc(F)cc21 (stereo not drawn) [I-77, N-[2-hydroxy-3-(4-methylpiperazin-1-yl)propyl]-2-methyl-7-[1,2-dihydro-5-fluoro-2-oxo-3H-indol-(Z)-3-ylidene]-4,5,6,7-tetrahydro-1H-indole-3-carboxamide]
 | 82% | Cc1[nH]c2c(c1C(=O)NCCCN(C)C)CCC/C2=C1/C(=O)Nc2ccc(Cl)cc21 [I-7, N-(3-(dimethylamino)propyl)-2-methyl-7-[1,2-dihydro-5-chloro-2-oxo-3H-indol-(Z)-3-ylidene]-4,5,6,7-tetrahydro-1H-indole-3-carboxamide]
13 nM |  | Cc1[nH]c2c(c1C(=O)NCC(O)CN1CCCCC1)CCC/C2=C1/C(=O)Nc2ccc(F)cc21 (stereo not drawn) [I-74, N-(2-hydroxy-3-(piperidin-1-yl)propyl)-2-methyl-7-[1,2-dihydro-5-fluoro-2-oxo-3H-indol-(Z)-3-ylidene]-4,5,6,7-tetrahydro-1H-indole-3-carboxamide]
30 nM |  | Cc1[nH]c2c(c1C(=O)NCCO)CCC/C2=C1/C(=O)Nc2ccc(F)cc21 [I-9, N-(2-hydroxyethyl)-2-methyl-7-[1,2-dihydro-5-fluoro-2-oxo-3H-indol-(Z)-3-ylidene]-4,5,6,7-tetrahydro-1H-indole-3-carboxamide]
 | 76% | Cc1[nH]c2c(c1C(=O)NCCO)CCC/C2=C1/C(=O)Nc2ccccc21 [I-8, N-(2-hydroxyethyl)-2-methyl-7-[1,2-dihydro-2-oxo-3H-indol-(Z)-3-ylidene]-4,5,6,7-tetrahydro-1H-indole-3-carboxamide]
5.3 nM | 54% | CCN(CC)CCNC(=O)c1c(C)[nH]c2c1CCC/C2=C1/C(=O)Nc2ccc(Cl)cc21 [I-3, N-(2-(diethylamino)ethyl)-2-methyl-7-[1,2-dihydro-5-chloro-2-oxo-3H-indol-(Z)-3-ylidene]-4,5,6,7-tetrahydro-1H-indole-3-carboxamide]
9 nM | 74% | CCN(CC)CCNC(=O)c1c(C)[nH]c2c1CCC/C2=C1/C(=O)Nc2ccccc21 [I-5, N-(2-(diethylamino)ethyl)-2-methyl-7-[1,2-dihydro-2-oxo-3H-indol-(Z)-3-ylidene]-4,5,6,7-tetrahydro-1H-indole-3-carboxamide]
 | 75% | CCN(CC)CCNC(=O)c1c(C)[nH]c2c1CCC/C2=C1/C(=O)Nc2ccc(F)cc21 [I-2, N-(2-(diethylamino)ethyl)-2-methyl-7-[1,2-dihydro-5-fluoro-2-oxo-3H-indol-(Z)-3-ylidene]-4,5,6,7-tetrahydro-1H-indole-3-carboxamide]
 | 84% | Cc1[nH]c2c(c1C(=O)NCC(O)CN1CCCC1)CCC/C2=C1/C(=O)Nc2ccccc21 (stereo not drawn) [I-70, N-(2-hydroxy-3-(pyrrolidin-1-yl)propyl)-2-methyl-7-[1,2-dihydro-2-oxo-3H-indol-(Z)-3-ylidene]-4,5,6,7-tetrahydro-1H-indole-3-carboxamide]
 | 80% | CCN(CC)CC(O)CNC(=O)c1c(C)[nH]c2c1CCC/C2=C1/C(=O)Nc2ccccc21 (stereo not drawn) [I-63, N-(3-(diethylamino)-2-hydroxypropyl)-2-methyl-7-[1,2-dihydro-2-oxo-3H-indol-(Z)-3-ylidene]-4,5,6,7-tetrahydro-1H-indole-3-carboxamide]
